Experimental data as given in patent US9249128B2 (priority 2010, dated 2016).

Key:
FAAH = target: T1, FAAH (Mus musculus, UniProt O08914); test: Competitive ABPP of FAAH in mouse brain proteome; type: biochemical; conditions: gel-based competitive ABPP, 10 μM inhibitor
T1 construct: from tissue; host or cells: mouse brain
T1 sequence (O08914 1-579): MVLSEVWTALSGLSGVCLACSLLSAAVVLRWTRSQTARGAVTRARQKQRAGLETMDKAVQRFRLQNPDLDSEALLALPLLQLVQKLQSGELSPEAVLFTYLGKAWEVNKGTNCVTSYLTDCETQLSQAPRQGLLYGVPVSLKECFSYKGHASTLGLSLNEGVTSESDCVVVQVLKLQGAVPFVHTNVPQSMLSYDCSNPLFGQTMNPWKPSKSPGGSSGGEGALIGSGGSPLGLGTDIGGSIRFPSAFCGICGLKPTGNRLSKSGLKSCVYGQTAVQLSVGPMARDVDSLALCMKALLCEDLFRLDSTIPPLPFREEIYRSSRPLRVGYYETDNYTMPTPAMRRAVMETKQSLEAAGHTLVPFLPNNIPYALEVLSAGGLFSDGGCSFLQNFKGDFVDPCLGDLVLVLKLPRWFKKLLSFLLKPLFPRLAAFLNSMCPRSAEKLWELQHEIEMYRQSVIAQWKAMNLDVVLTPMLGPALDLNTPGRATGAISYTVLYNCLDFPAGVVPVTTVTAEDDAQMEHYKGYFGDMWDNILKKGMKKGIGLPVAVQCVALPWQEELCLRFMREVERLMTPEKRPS
Protocol: (§1) For ABPP experiments, cell lysate and tissue proteomes were treated with 1 μM FP-rhodamine for 30 min at room temperature (50 μL total reaction volume) as described previously (Nomura et al., 2010). Reactions were quenched with one volume of standard 4×SDS/PAGE loading buffer (reducing), separated by SDS/PAGE (10% acrylamide), and visualized in-gel with a Hitachi FMBio IIe flatbed fluorescence scanner (MiraiBio). Inhibitors were preincubated prior (30 min or 4 h at 37° C. in vitro or in situ, respectively) to the addition of FP-rhodamine.

[1] = test system: serine hydrolase activities detected in the brain proteome; test: Competitive ABPP-MudPIT of brain membrane proteomes from treated mice; type: in vivo, mouse; conditions: 20 mg/kg, oral gavage, 4 hr; off-target is carboxylesterase ES1
Protocol: Competitive ABPP-MudPIT experiments were performed as previously described (Nomura et al., 2010). Briefly, 1 mg of proteome was labeled with 5 μM FP-biotin, followed by solubilization with 1% Triton X-100, denaturation by SDS and heating, avidin precipitation of labeled proteins, and on-bead tryptic digest. Tryptic peptides were then loaded on to a biphasic (strong cation exchange/reverse phase) capillary column and analyzed by two-dimensional liquid chromatography (2D-LC) separation in combination with tandem mass spectrometry using an Agilent 1100 LC system coupled with a ThermoFisher LTQ linear ion trap mass spectrometer. Spectral counts are reported as the average of three samples with the standard error of the mean (SEM).
JW480 was administered by oral gavage (in PEG300, 4 μL/g mouse) or intraperitoneally (in 18:1:1 v/v/v solution of saline:ethanol:emulphor, 10 μL/g). After the indicated amount of time, mice were anesthetized with isoflurane and killed by decapitation. Tissues were removed and then flash frozen in liquid N2. Tissues were stored at −80° C. until use. Animal experiments were conducted in accordance with the guidelines of the institutional Animal Care and Use Committee of The Scripps Research Institute.

PC3 tumor xenograft = PC3 tumor xenograft growth in SCID mice; type: in vivo, mouse; conditions: 80 mg/kg, oral, daily, versus vehicle
Protocol: Human cancer xenografts were established by transplanting cancer cell lines ectopically into the flank of C.B17 SCID mice (Taconic Farms). Briefly, cells were washed two times with PBS, trypsinized, and harvested in serum-containing medium. Next, the harvested cells were washed two times with serum-free medium and resuspended at a concentration of 2.0×10^4 cells/μL and 100 μL was injected. Growth of the tumors was measured every 3 days with calipers. For chronic JW480 treatment studies, mice were treated with JW480 or vehicle once daily (at approximately the same time everyday) by oral gavage in PEG300 (4 μL/g mouse). The treatments were initiated immediately after ectopic injection of cancer cells.

KIAA1363 = target: T2, KIAA1363 (Homo sapiens, UniProt Q6PIU2); test: Gel-based competitive ABPP in PC3 cell proteomes, in vitro treatment; type: biochemical; design: PC3 cancer cells, which have high endogenous KIAA1363 levels; endogenous in cells; host or cells: PC3
T2 sequence (Q6PIU2 1-408): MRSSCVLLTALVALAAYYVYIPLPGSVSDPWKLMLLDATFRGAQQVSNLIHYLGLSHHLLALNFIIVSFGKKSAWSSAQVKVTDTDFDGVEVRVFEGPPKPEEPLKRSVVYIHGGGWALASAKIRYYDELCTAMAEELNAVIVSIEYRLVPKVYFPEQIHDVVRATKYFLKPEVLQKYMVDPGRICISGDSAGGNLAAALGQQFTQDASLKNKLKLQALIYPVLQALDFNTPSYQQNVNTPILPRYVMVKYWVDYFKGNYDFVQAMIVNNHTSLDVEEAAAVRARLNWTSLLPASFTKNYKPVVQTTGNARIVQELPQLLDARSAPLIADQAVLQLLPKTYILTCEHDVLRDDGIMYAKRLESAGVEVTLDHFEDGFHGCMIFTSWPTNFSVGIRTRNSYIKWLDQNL
Protocol: Inhibitors were dissolved in DMSO and diluted into media or buffer prior to cell or proteome treatment, respectively. For in vitro treatment, final DMSO concentration was 4%. For in situ treatments of cells for ABPP, lipid measurements, migration, cell-survival, and invasion assays, 2×10^6 cells were seeded in 6 cm dishes (˜100% confluency) 24 h prior to inhibitor pre-treatment (in DMSO at 0.1% final concentration) in serum-free media (3 mL) for the designated time before harvesting cells for ABPP or lipid measurements or before the initiation of migration, cell-survival, and invasion assays.
as §1

SMILES | Inhibition of FAAH / selectivity versus FAAH (FAAH) | Off-targets among ~30 brain serine hydrolase activities (ABPP-MudPIT) [1] | PC3 tumor growth (PC3 tumor xenograft) | Selectivity for KIAA1363 by gel-based competitive ABPP (KIAA1363; PC3 cells, also DU145 and LNCaP cells) | IC50 (KIAA1363; in vitro treatment) [µM]
COc1ccc(CNC(=O)Oc2cccc3c2OC(C)(C)C3)cc1 [JW148, 2,2-dimethyl-2,3-dihydrobenzofuran-7-yl 4-methoxybenzylcarbamate] | good selectivity |  |  |  | 
CC(C)c1ccccc1OC(=O)NCCc1ccc2ccccc2c1 [JW480, 2-isopropylphenyl (2-(naphthalen-2-yl)ethyl)carbamate] |  | only a single off-target was observed | significantly impaired | excellent selectivity | 0.012
